Measured values as given in patent US9051351B2, “Hepatocyte growth factor mimics as therapeutic agents” (Washington State University, priority 2011, dated 2015).
Entries after “also recorded” stand apart in the source; their conditions may differ. Structures can show the parent of a compound that is named as a salt. Where two headings read alike, the source gives them in different places. One block for each compound: values may come before it. Where a SMILES comes first, the peptide text is derived from it. [ ]: non-standard residue; d: D form. dNle = CCCC[C@@H](N)C(=O)O; Nle = CCCC[C@H](N)C(=O)O; GABA = NCCCC(=O)O

Key:
[1] = Serum metabolism of peptides in rat serum; format: in vitro ADME; details: for half-life at 500 µg/mL: male, Sprague Dawley, rat, serum
Description: Four month old male Sprague Dawley rats were used as the blood source for the metabolism studies. Blood was collected from left/right jugular veins of the rats using sterile catheters. After a 30 minute incubation on ice, the blood was centrifuged at 1000 rpm for 15 min to separate the serum. Serum was then transferred to clean tubes and stored at −20° C. until use.
Except for dihexa all drug solutions were prepared in HPLC grade water at 5 mg/ml. Stock drugs were kept in powder form and stored at −20° C. Serum metabolism experimental procedure and analysis. Rat blood serum samples were pre-equilibrated at 37° C. and then 10 μL (50 μg) of each drug solution was added to 90 μL of rat serum in 1.5 mL Eppendorf tube maintained at 37° C. At specified time intervals, metabolism was terminated by precipitating proteins with the addition of 1 ml of a solution of acetonitrile (ACN) and acetic acid (9:1, v/v). The terminated reaction mixture was stored in refrigerator (5° C.) overnight and centrifuged (14,000 rpm) for 30 min to remove precipitated proteins. The separated supernatant was dried in vacuum concentrator. The dried samples were reconstituted using 200 μL HPLC mobile phase (10% v/v ACN in water), vortexed briefly, and subjected to HPLC separation and analysis. A serum blank experiment to detect any interfering peaks in the HPLC chromatogram was performed by in an identical manner except that no drug was added. Zero time values for each drug candidate were established by first treating the serum with ACN, processing the sample as described above, adding drug, and then performing HPLC analysis.
The degradation rate of drug was determined by measuring the decrease in area under curve (AUC) at the retention time of drug over time. The AUC obtained from the zero time experiment was considered to represent the “100%” drug concentration and was used to determine the decreased drug concentration at each specified time interval. The semi-logarithmic plot of drug concentration vs. time was generated to determine degradation kinetic constant (k) of the tested drug. The half-life of drug was (t1/2) was calculated by 0.693/k.
Analysis of samples was performed using an HPLC system. The system consisted of a communications bus module, pumps, and a photodiode array detector. Separation was achieved using a C18 (250 mm×4.6 mm id., 5 μm particle size) reverse phase column. The column temperature was set at 40° C. The mobile phase consisted of a mixture of ACN and water with 0.1% TFA and was degassed by ultrasonication. Samples were introduced by manual mode with an injection volume of 250 μL. The drug was eluted with a flow rate of 1 mL/min and detected by PDA detector at […] wavelengths of 215 and 280 nm.

scopolamine treated rats = assay: Morris water maze, scopolamine amnesia model; format: in vivo, rat; details: for mean latency to find the pedestal: icv, Dihexa, Hinge 300 pmol, scopolamine 70 nmol
Description: Swim speed was determined from these values.

hippocampal neurons = assay: Dendritic spine counts (spinogenesis) in mRFP-β-actin transfected dissociated hippocampal neurons; format: cell-based, rat; details: dose-response; 10^-8 and 10^-10 M
Description: Hippocampal neurons (2×10^5 cells per square cm) were cultured from P1 Sprague Dawley rats on plates coated with poly-L-lysine from Sigma (St. Louis, Mo.; molecular weight 300,000). […] Each experiment was repeated at least three times using independent culture preparations. […] Hippocampal neurons (2×10^5 cells per square centimeter) were cultured from P1-2 Sprague Dawley rats on plates coated with poly-L-lysine from Sigma (St. Louis, Mo.; molecular weight 300,000). Hippocampal neurons were maintained in Neurobasal A media from Invitrogen (Carlsbad, Calif.) supplemented with B27 from Invitrogen, 0.5 mM L-glutamine, and […] cytosine-D-arabinofuranoside from Sigma added at 2 days in vitro. Hippocampal neurons were then cultured a further 3-7 days, at which time they were either transfected or treated with various pharmacological reagents as described in the text or figure legends. Neurons were transfected with mRFP-β-actin on day in vitro 6 […] using LipofectAMINETM 2000 (Invitrogen) according to the manufacturer's protocol. […] On DIV7 the cells were treated with vehicle (H20) or peptides (as described in the text) added to media. […] Five 50 μm long segments of dendrite from at least 10 neurons per data point were analyzed for each data point reported. Each experiment was repeated at least three times using independent culture preparations. […] A target sequence for c-Met was designed using RNAi central design program (see the website located at […].edu/). The target sequence […] NO: 2) was inserted into pSUPER vector (Oligoengine, Seattle Wash.) which drives endogenous production of shRNA under the H1 promoter. The shRNA was transfected into cells using the lipofectamine method described above. Verification of receptor knockdown was done by creating a c-[…]-Myc tagged gene product using the Gateway cloning system (Invitrogen). The Met protein coding sequence was cloned from rat whole brain cDNA using primers obtained from Integrated DNA Technologies, Inc. The amplified product was gel purified and a band corresponding to 190 kDa band excised and cloned into a […] destination vector (Gateway). Hippocampal neurons (2×10^5 cells per square cm) were cultured from P1 Sprague Dawley rats on plates coated with poly-L-lysine from Sigma (St. Louis, Mo.; molecular weight […]).

[2] = rat serum, 37° C., Mean +/− SD, N = 3, read-out: Half-Life (min), serum stability

Compound: CCCC[C@@H](N)C(=O)N[C@@H](Cc1ccc(O)cc1)C(=O)N[C@H](C(=O)O)[C@@H](C)CC [D-Nle-Tyr-Ile] (H-[dNle]-Tyr-Ile-OH)
half-life at 500 µg/mL [1, 2]: 225 min

Compound: CC[C@H](C)[C@H](NC(=O)[C@H](Cc1ccc(O)cc1)NC(=O)CCCN)C(=O)O [GABA-Tyr-Ile] (H-[GABA]-Tyr-Ile-OH; N-terminus and C-terminus assumed)
time spent in the target quadrant, day 9 probe trial (scopolamine treated rats; scopolamine icv 70 nmol, analog icv 1 nmol): different than all the other treated groups
latency to find the submerged platform in the Morris water maze (scopolamine treated rats; scopolamine icv 70 nmol, analog icv 1 nmol, 8 days): exhibited the best performance among the compound treated groups; also recorded: not significantly different than the vehicle control group
time spent in the target quadrant, day 9 probe trial (scopolamine treated rats; scopolamine icv 70 nmol, analog icv 1 nmol, listed as GABA-Tyr): superior to all the other compound treated groups
half-life at 500 µg/mL [1, 2]: 946 min
spine numbers, stabilized AngIV analogs (FIG. 31) (hippocampal neurons): did not appear to be the most potent generator of new dendritic spines

Compound: CCCC[C@H](NC(C)=O)C(=O)N[C@@H](Cc1ccc(O)cc1)C(=O)N[C@H](C(=O)N[C@@H](Cc1c[nH]cn1)C(=O)O)[C@@H](C)CC [N-acetyl-Nle-Tyr-Ile-His] (Ac-[Nle]YIH-OH)
half-life at 500 µg/mL [1, 2]: 115 min

Compound: CCCC[C@H](N)C(=O)N[C@@H](Cc1ccc(O)cc1)C(=O)N[C@H](C(=O)N[C@@H](Cc1cnc[nH]1)C(=O)N1CCC[C@H]1C(=O)N[C@@H](Cc1ccccc1)C(=O)O)[C@@H](C)CC [Nle1-AngIV, Norleucine-YIHPF, reference compound] (H-[Nle]YIHPF-OH)
half-life at 500 µg/mL [1, 2]: 1.42 min
half-life at 500 µg/mL ([1]; read-out: t1/2 in rat serum): 1.4 min
Half-Life (min), serum stability ([1]; rat serum, 37° C., Mean +/− SD, N = 3): less than two minutes

half-life at 500 µg/mL [1, 2]: 23 min
Compound: CCCC[C@H](N)C(=O)N[C@@H](Cc1ccc(O)cc1)C(=O)N[C@H](C(=O)N[C@@H](Cc1c[nH]cn1)C(N)=O)[C@@H](C)CC [Nle-Tyr-Ile-His-NH2] (H-[Nle]YIH-NH2)

Compound: CN1[C@@H]2C[C@@H](OC(=O)[C@H](CO)c3ccccc3)C[C@H]1[C@@H]1O[C@@H]12 [scopolamine, Scopolamine hydrobromide, reference compound]
mean latency to find the pedestal (scopolamine treated rats; day one of training): 114.7 s
mean latency to find the pedestal (scopolamine treated rats; final day of training (day 8)): 84.8 s
mean latency to find the pedestal (scopolamine treated rats; fourth day of training): 102.4 s
